From ChEMBL document CHEMBL3885861, “Open TG-GATES”

Organism: Rattus norvegicus
Assay: Open TG-GATES - Regimen: Single
Type: toxicity, organism-based, Sprague-Dawley
Design: regimen Single, gender Male, age 6 weeks
Details: in vivo, po, 60 mg/kg, route gavage, dose level Low; for Bas / Eos / Lym / MCHC / MCV / Mono / Neu / RBC / Ret / WBC: tissue Blood; for KIDNEY_L / KIDNEY_R / KIDNEY_TOTAL: tissue Kidney; for LIVER: tissue Liver; for ALP / AST / CRE / DBIL / GLC / IP / K / LDH / Na / PL / RALB / TBIL / TC / TP / gamma-GTP: tissue Plasma

CS(=O)(=O)O.Cc1ccc(NC(=O)c2ccc(CN3CCN(C)CC3)cc2)cc1Nc1nccc(-c2cccnc2)n1 [IMATINIB MESYLATE]
Bas (3 h): 0%
Eos (3 h): 1%
Lym (3 h): 73.4%
MCHC (3 h): 32.7%
MCV (3 h): 63.2 fL
Mono (3 h): 3%
Neu (3 h): 21.6%
RBC (3 h): 603 x10_4/ul
Ret (3 h): 9.5%
WBC (3 h): 109.9 x10_2/uL
KIDNEY_L (3 h): 0.9 g
KIDNEY_R (3 h): 0.9 g
KIDNEY_TOTAL (3 h): 1.7 g
LIVER (3 h): 9.3 g
ALP (3 h): 1755.4 IU/L
AST (3 h): 81.6 IU/L
CRE (3 h): 0.2 mg/dL
DBIL (3 h): 0.008 mg/dL
GLC (3 h): 187 mg/dL
IP (3 h): 8.6 mg/dL
K (3 h): 4.1 meq/L
LDH (3 h): 243.6 IU/L
Na (3 h): 142.4 meq/L
PL (3 h): 150.2 mg/dL
RALB (3 h): 4 g/dL
TBIL (3 h): 0.03 mg/dL
TC (3 h): 82.8 mg/dL
TP (3 h): 5.5 g/dL
gamma-GTP (3 h): 0.8 IU/L
Bas (6 h): 0%
Eos (6 h): 0.8%
Lym (6 h): 80.6%
MCHC (6 h): 32.8%
MCV (6 h): 63.4 fL
Mono (6 h): 2%
Neu (6 h): 16.2%
RBC (6 h): 618.6 x10_4/ul
Ret (6 h): 9.5%
WBC (6 h): 104.6 x10_2/uL
KIDNEY_L (6 h): 0.9 g
KIDNEY_R (6 h): 0.9 g
KIDNEY_TOTAL (6 h): 1.8 g
LIVER (6 h): 8.4 g
ALP (6 h): 1520 IU/L
AST (6 h): 77.6 IU/L
CRE (6 h): 0.2 mg/dL
DBIL (6 h): 0.008 mg/dL
GLC (6 h): 190.8 mg/dL
IP (6 h): 9.4 mg/dL
K (6 h): 4.2 meq/L
LDH (6 h): 238 IU/L
Na (6 h): 140.7 meq/L
PL (6 h): 152.8 mg/dL
RALB (6 h): 4 g/dL
TBIL (6 h): 0.03 mg/dL
TC (6 h): 82.4 mg/dL
TP (6 h): 5.4 g/dL
gamma-GTP (6 h): 0.7 IU/L
Bas (9 h): 0%
Eos (9 h): 1%
Lym (9 h): 73.8%
MCHC (9 h): 33%
MCV (9 h): 63.2 fL
Mono (9 h): 2.2%
Neu (9 h): 22.6%
RBC (9 h): 613.6 x10_4/ul
Ret (9 h): 8.7%
WBC (9 h): 94.3 x10_2/uL
KIDNEY_L (9 h): 0.8 g
KIDNEY_R (9 h): 0.9 g
KIDNEY_TOTAL (9 h): 1.7 g
LIVER (9 h): 8.2 g
ALP (9 h): 1712.2 IU/L
AST (9 h): 75.4 IU/L
CRE (9 h): 0.2 mg/dL
DBIL (9 h): 0.006 mg/dL
GLC (9 h): 183.2 mg/dL
IP (9 h): 9.4 mg/dL
K (9 h): 4 meq/L
LDH (9 h): 176.4 IU/L
Na (9 h): 140 meq/L
PL (9 h): 137.4 mg/dL
RALB (9 h): 4 g/dL
TBIL (9 h): 0.016 mg/dL
TC (9 h): 77.8 mg/dL
TP (9 h): 5.5 g/dL
gamma-GTP (9 h): 0.7 IU/L
Bas (24 h): 0%
Eos (24 h): 0.6%
Lym (24 h): 85%
MCHC (24 h): 33.1%
MCV (24 h): 64.4 fL
Mono (24 h): 2.4%
Neu (24 h): 11.6%
RBC (24 h): 590.4 x10_4/ul
Ret (24 h): 8.2%
WBC (24 h): 87.7 x10_2/uL
KIDNEY_L (24 h): 0.9 g
KIDNEY_R (24 h): 0.9 g
KIDNEY_TOTAL (24 h): 1.8 g
LIVER (24 h): 10 g
ALP (24 h): 1709.8 IU/L
AST (24 h): 77.2 IU/L
CRE (24 h): 0.2 mg/dL
DBIL (24 h): 0.002 mg/dL
GLC (24 h): 186.4 mg/dL
IP (24 h): 7.6 mg/dL
K (24 h): 4 meq/L
LDH (24 h): 197 IU/L
Na (24 h): 142.7 meq/L
PL (24 h): 162.8 mg/dL
RALB (24 h): 4.1 g/dL
TBIL (24 h): 0.006 mg/dL
TC (24 h): 85.4 mg/dL
TP (24 h): 5.7 g/dL
